Data taken from publication PMC8776094, “Reactive Oxygen Species Production Is Responsible for Antineoplastic Activity of Osmium, Ruthenium, Iridium and Rhodium Half-Sandwich Type Complexes with Bidentate Glycosyl Heterocyclic Ligands in Various Cancer Cell Models” (International Journal of Molecular Sciences, 2022).

How the values were obtained:
Format in all cases: cell-based
[1] = tested on: A2780 ovarian cancer cells; assay: MTT reduction assay, 4 h, rapid toxicity, A2780; settings: 4 h treatment; for Maximum Inhibition (%) A2780: MTT assay, tested 0.001694-33.3333 µM, ND = not detected or cannot be calculated
Protocol: (§1) The compounds were tested between 0.001694 and 33.3333 µM, using a 4-hour-long MTT test to assess rapid toxicity and a 48-hour-long SRB assay to assess the long-term effects of the inhibition of proliferation (cytostasis). The MTT assay assesses the activity of mitochondrial complex I and detects rapid, direct toxicity, as well as indicating apoptosis and necrosis. The SRB assay measures the total protein content that is proportional to cell numbers; therefore, the assay can detect changes in cell numbers and can thus be used as a readout for cell proliferation. The SRB assay was performed after 48 h of treatment (with the exception of L428 cells, which were tested for 96 h due to their slower proliferation rate). In this setting, the SRB assay informs us of long-term changes to cell proliferation. We assessed the maximal inhibition within that concentration range, and descriptive statistics were performed. We performed a one-way ANOVA, followed by the Kruskal–Wallis test, regardless of the normal or non-normal distribution of the data. Due to the large number of significance values, the results of the significance calculations are provided in an Excel spreadsheet at https://figshare.com/s/28d14597d5041f08eb08 (accessed on 6 January 2022), among other primary data of the study. Where possible, nonlinear regression was performed on the curves to determine the IC50 values ((inhibitor) vs. response—variable slope (four parameters) method with Graphpad v8.0.1). […] In Table 5, we added the IC50 values that we determined for a set of 4 active ruthenium half-sandwich complexes we identified previously, to be used in subsequent structure-activity relationship (SAR) analyses.
A2780 cells were cultured in RMPI 1640 medium, supplemented with 10% fetal calf serum, 2 mM glutamine, and 1% penicillin-streptomycin.
The MTT reduction assay measures the activity of mitochondrial complex I and can be used to detect apoptosis and necrosis. The assay was performed similarly to the method used in [72]. Briefly, cells were plated in 96-well plates the day before the assay. Cells were treated with the compounds for 4 h, then MTT was added at 0.5 mg/mL final concentration and the cells were incubated at 37 °C in a cell incubator. The culture media were removed and the reduced MTT dye was dissolved in dimethyl-sulfoxide (DMSO) and plates were measured in a plate photometer (Thermo Scientific Multiscan GO spectrophotometer, Waltham, MA, USA) at 540 nm. On each plate, wells were designed to contain untreated/vehicle-treated cells. In the calculations, the readings for these wells were considered as 1 and all readings were expressed relative to these values.

[2] = tested on: ID8 ovarian cancer cell line; assay: SRB assay, 48 h, cytostasis, ID8; settings: for IC50 / ID8 Max. Inh. (%): SRB assay, 48 h; for ID8 Max. Inh. (%): ND = not detected
Protocol: as §1
ID8 cells were cultured in a high-glucose DMEM (4.5 g/L glucose) medium, supplemented with 4% fetal calf serum, 2 mM glutamine, 1% penicillin-streptomycin, and 1% ITS supplement (I3146).
(§2) The assay was performed similarly to the method used in [73]. Cells were seeded in 96-well plates the day before the assay. Cells were treated with the compounds for 48 h, with the exception of L428, where 96 h of treatment was applied. Cells were fixed with 10% trichloroacetic acid (TCA). Fixed cells were washed in distilled water 3 times, followed by staining with SRB (0.4 m/V% dissolved in 1% acetic acid) for 10 min. The stained cells were washed in 1% acetic acid 5 times; the acetic acid was removed, and the cells were left to dry. Protein-bound SRB was released by adding 100 µL 10 mM Tris base. Plates were measured in a plate photometer (Thermo Scientific Multiscan GO spectrophotometer, Waltham, MA, USA) at 540 nm. On each plate, wells were designed to contain untreated cells. In calculations, the readings for these wells were considered as 1 and all readings were expressed relative to these values.
(§3) Statistical analysis was performed using the 8.0.1 version of Graphpad Prism. Values were tested for normal distribution, using the d’Agostino and Pearson normality test. When necessary, values were log-normalized or were normalized using the Box-Cox normalization method or using a two-step transformation, as indicated in the figure captions. Nonlinear regression was performed using the built-in “[Inhibitor] vs. Response—Variable slope (four parameters), least-square fit” utility of Graphpad, yielding the IC50 and Hill slope values.

[3] = tested on: Saos, an osteosarcoma cell line; assay: SRB assay, 48 h, cytostasis, Saos; settings: for IC50 / Saos Max. Inh. (%): SRB assay; for Saos Max. Inh. (%): ND = not detected
Excerpt: We turned next to assessing whether the cytostatic activity of Os-3, Os-4, Os-5, Os-6 and Ir-6 complexes is specific for ovarian cancer cell lines or if they may be active on other cell lines. To that end, we tested the complexes on another carcinoma cell line (Capan2, a pancreatic adenocarcinoma cell line), on a sarcoma cell line (Saos, an osteosarcoma cell line) and on a lymphoma cell line (L428, a Hodgkin’s lymphoma cell line).
Saos cells were maintained in DMEM (4.5 g/L glucose) medium, supplemented with 10% fetal calf serum, 2 mM glutamine, and 1% penicillin-streptomycin.
as §2, §3
Here, 1.5 × 10^3 Capan2, 3 × 10^3 Saos cells and 10^4 L428 cells were plated onto 96-well plates. Capan2 and Saos cells were treated with the compounds in the concentrations indicated for 48 h for an SRB assay. L428 cells were treated with the compounds in the concentrations indicated for 96 h, then cells were counted using conventional microscopy and a Burker chamber. Data are represented as average ± SD, from three biological replicates; individual assays were performed in duplicate. Values were normalized for vehicle-treated cells; the absorbance for vehicle-treated cells is equal to 1. A one-way ANOVA, followed by a Kruskal–Wallis test, was performed individually for each compound. The results of the statistical analysis are presented in an Excel spreadsheet at https://figshare.com/s/28d14597d5041f08eb08 (accessed on 6 January 2022). Nonlinear regression was performed on the data.

Compound	toxicity on A2780 cells in short-term MTT assay (in words) [1]	Maximum Inhibition (%) A2780 [1]	cytostatic activity on ID8 cells, SRB assay (in words) ([2]; 48 h treatment)	IC50 [2]	ID8 Max. Inh. (%) [2]	cytostatic activity on Saos cells (in words) [3]	IC50 [3]	Saos Max. Inh. (%) [3]
Cc1c(C)c(C)[c-](C)c1C.F[P-](F)(F)(F)(F)F.O=C(OCC1OC(n2cc(-c3ccccn3)nn2)C(OC(=O)c2ccccc2)C(OC(=O)c2ccccc2)C1OC(=O)c1ccccc1)c1ccccc1.[Cl][Ir+2] (mixture of isomers) [Ir-6]	exerted toxicity in higher concentrations	43.07%	pronounced cytostatic activity	0.98 µM	100%	active on all cell lines	2.71 µM	100%
Cc1ccc(C(C)C)cc1.F[P-](F)(F)(F)(F)F.O=C(OCC1OC(c2nnc(-c3ccccn3)o2)C(OC(=O)c2ccccc2)C(OC(=O)c2ccccc2)C1OC(=O)c1ccccc1)c1ccccc1.[Cl][Os+] (mixture of isomers) [Os-3]	–	37.42%	–	5.94 µM	100%	active on all cell lines	–	65%
Cc1ccc(C(C)C)cc1.F[P-](F)(F)(F)(F)F.O=C(OCC1OC(c2nnc(-c3ccccn3)o2)C(OC(=O)c2ccccc2)C(OC(=O)c2ccccc2)C1OC(=O)c1ccccc1)c1ccccc1.[Cl][Os+] (mixture of isomers) [Os-4]	–	26.67%	–	6.95 µM	100%	active on all cell lines	8.78 µM	100%
Cc1ccc(C(C)C)cc1.F[P-](F)(F)(F)(F)F.O=C(OC1COC(c2nnc(-c3ccccn3)o2)C(OC(=O)c2ccccc2)C1OC(=O)c1ccccc1)c1ccccc1.[Cl][Os+] (mixture of isomers) [Os-5]	–	31.38%	–	1.96 µM	100%	active on all cell lines	8.52 µM	100%
Cc1ccc(C(C)C)cc1.F[P-](F)(F)(F)(F)F.O=C(OCC1OC(n2cc(-c3ccccn3)nn2)C(OC(=O)c2ccccc2)C(OC(=O)c2ccccc2)C1OC(=O)c1ccccc1)c1ccccc1.[Cl][Os+] (mixture of isomers) [Os-6]	–	21.38%	–	1.96 µM	100%	active on all cell lines	3.6 µM	100%
